We go through two molecules from US11407723B2, “Selective histone deacetylase inhibitors for the treatment of human disease” (Shuttle Pharmaceuticals, Inc., priority 2018, dated 2022).

Holding throughout (format): biochemical
The target of experiment [1] is HDAC3 protein (Homo sapiens, UniProt O15379). As to the kind of experiment: in vitro HDAC enzyme inhibition assay, HDAC3 (selectivity of HDAC6 over HDAC3). Conditions: HDAC6 vs HDAC3. The method, then: (§1) The compounds were tested against Pan HDAC, HDAC1, HDAC3, and HDAC6 proteins in vitro.
Experiment [2] deals with HDAC1 protein (Homo sapiens, UniProt Q13547). As to the kind of experiment: in vitro HDAC enzyme inhibition assay, HDAC1 (selectivity of HDAC6 over HDAC1). The note with it: HDAC6 vs HDAC1. The method, then:
as §1

Experiment [3] has as its target T1, HDAC6 protein (Homo sapiens, UniProt Q9UBN7).
T1 sequence (Q9UBN7 1-1215): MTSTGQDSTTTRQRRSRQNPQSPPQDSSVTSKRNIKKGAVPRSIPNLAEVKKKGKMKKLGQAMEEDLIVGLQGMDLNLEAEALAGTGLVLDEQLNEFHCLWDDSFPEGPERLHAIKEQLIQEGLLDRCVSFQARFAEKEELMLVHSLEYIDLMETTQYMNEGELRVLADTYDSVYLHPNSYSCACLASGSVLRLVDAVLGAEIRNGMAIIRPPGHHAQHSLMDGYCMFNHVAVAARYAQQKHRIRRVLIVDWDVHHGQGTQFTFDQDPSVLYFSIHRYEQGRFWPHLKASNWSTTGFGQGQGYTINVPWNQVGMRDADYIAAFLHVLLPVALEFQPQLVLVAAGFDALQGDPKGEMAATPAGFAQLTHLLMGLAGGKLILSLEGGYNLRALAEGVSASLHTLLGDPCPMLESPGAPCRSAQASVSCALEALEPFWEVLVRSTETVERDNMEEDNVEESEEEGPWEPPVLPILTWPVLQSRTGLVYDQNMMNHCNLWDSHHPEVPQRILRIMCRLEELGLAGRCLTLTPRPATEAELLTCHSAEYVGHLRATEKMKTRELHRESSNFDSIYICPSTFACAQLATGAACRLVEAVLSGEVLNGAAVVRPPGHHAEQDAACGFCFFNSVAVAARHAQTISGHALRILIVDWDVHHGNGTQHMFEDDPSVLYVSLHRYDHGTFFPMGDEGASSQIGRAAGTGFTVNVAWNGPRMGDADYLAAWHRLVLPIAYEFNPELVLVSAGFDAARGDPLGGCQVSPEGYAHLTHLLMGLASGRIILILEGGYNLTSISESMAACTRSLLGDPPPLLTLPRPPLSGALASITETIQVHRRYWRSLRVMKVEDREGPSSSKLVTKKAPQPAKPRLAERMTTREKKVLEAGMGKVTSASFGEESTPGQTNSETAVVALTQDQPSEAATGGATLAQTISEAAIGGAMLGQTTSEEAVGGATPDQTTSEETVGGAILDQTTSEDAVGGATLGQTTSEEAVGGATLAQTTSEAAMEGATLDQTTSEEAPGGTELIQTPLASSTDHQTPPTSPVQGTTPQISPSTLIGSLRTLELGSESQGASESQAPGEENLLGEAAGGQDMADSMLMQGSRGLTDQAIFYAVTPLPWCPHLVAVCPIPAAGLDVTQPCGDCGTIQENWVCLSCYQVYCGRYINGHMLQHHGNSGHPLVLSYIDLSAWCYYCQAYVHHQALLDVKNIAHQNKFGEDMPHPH
As to the kind of experiment: in vitro HDAC enzyme inhibition assay, HDAC6. Conditions: for inhibitory activity against HDAC6 protein: FIGS. 1 and 2A-2C. As to the method:
as §1

HDAC3 protein, sequence (O15379 whole entry): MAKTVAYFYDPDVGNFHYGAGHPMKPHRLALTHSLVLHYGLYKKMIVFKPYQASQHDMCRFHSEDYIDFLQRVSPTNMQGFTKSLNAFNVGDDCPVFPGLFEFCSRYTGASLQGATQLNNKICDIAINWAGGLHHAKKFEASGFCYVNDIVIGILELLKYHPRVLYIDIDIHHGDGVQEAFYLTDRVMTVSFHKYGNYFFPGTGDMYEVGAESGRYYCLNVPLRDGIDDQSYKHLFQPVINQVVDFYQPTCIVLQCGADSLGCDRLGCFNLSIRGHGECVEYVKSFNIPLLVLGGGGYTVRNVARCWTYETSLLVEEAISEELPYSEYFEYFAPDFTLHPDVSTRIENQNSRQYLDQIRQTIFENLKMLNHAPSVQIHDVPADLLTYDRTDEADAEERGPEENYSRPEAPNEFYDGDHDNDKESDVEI
HDAC3 protein, sequence (Q9Y618 395-489 partner limits assumed): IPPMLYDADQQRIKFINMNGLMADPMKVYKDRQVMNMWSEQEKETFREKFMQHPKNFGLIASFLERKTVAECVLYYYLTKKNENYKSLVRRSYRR
HDAC1 protein, sequence (Q13547 whole entry): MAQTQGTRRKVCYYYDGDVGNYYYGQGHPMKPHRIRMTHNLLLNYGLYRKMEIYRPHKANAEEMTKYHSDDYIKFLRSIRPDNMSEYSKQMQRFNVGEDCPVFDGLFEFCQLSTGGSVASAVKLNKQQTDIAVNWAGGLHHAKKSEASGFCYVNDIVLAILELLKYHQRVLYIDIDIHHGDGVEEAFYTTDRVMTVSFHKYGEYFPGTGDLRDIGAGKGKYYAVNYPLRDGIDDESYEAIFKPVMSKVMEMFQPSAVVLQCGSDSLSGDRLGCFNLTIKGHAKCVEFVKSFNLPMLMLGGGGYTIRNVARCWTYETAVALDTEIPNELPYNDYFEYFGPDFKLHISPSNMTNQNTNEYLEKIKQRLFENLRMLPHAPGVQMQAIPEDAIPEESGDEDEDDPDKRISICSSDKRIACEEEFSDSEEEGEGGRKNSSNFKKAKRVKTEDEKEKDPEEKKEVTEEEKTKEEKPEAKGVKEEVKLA

`Cc1cc(CNCCCCCC(=O)NO)ccc1OCc1cccc(-c2ccccc2)c1C` [SP-2-225, N-hydroxy-6-((3-methyl-4-((2-methyl-[1,1′-biphenyl]-3-yl)methoxy)benzyl)amino)hexanamide]: the “times more selective for HDAC6 as compared to HDAC3” value in experiment [1] was “about 22 times”. For the same molecule, the “times more selective for HDAC6 as compared to HDAC1” value in experiment [2] is given as “about 65 times”. In addition, in experiment [3], the “inhibitory activity against HDAC6 protein” value is “inhibitors of HDAC6”; the “selectivity for HDAC6 as compared to Pan-HDACs, HDAC1 and HDAC3 (in words)” value is “selective inhibitors of HDAC6”.

Regarding `Cc1nnc(NS(=O)(=O)c2ccc(NC(=O)CCCCCCC(=O)NO)cc2)s1` [SP-2-213, N^1-hydroxy-N^8-(4-(N-(5-methyl-1,3,4-thiadiazol-2-yl)sulfamoyl)phenyl) octanediamide], the “times more selective for HDAC6 as compared to HDAC3” value in experiment [1] is “about 12 times”. In experiment [2], the “times more selective for HDAC6 as compared to HDAC1” value is “about 4 times”. Besides, in experiment [3], the “inhibitory activity against HDAC6 protein” value is reported as “inhibitors of HDAC6”; the “selectivity for HDAC6 as compared to Pan-HDACs, HDAC1 and HDAC3 (in words)” value is “selective inhibitors of HDAC6”.
